“And” between values parts separate entries of the source, which are not always exact repeats. Equal values may be shown once. Read-outs that look alike come from different tables or passages of the source. Blank lines part the entries; values can stand above or below the compound they belong to.
Key:
[1] = target: DPP IV (Homo sapiens, UniProt P27487); experiment: In vitro DPP IV enzyme inhibition assay; inhibitors incubated at pH 2 or pH 8, then added to enzyme assay solution at pH 8.0; type: biochemical
Description: Inhibitors were incubated overnight in pH 2 or pH 8 solutions and then added directly to an enzyme assay solution at pH 8.0.
It is important to note that the x-axis in FIG. 3 refers to the concentration of the SPI, not the concentration of the released Xaa-boroPro.

[2] = target: T1, Serum DPP IV (Rattus norvegicus, UniProt P14740); experiment: Serum DPP IV activity in rats as a function of time after dosing; type: in vivo; details: rats, single oral dose of 0.025 mg/kg, average of four rats (FIG. 8)
T1 construct: Serum DPP IV activity in rats as a function of time; from tissue; host or cells: rat serum
Description: FIG. 8 Serum DPP IV activity in rats as a function of time following a single oral dose of 0.025 mg/kg. Each bar represents the average of four rats.
Each bar represents the average of four rats.

[3] = target: serum DPP IV (Mus musculus, UniProt P28843); experiment: In vivo inhibition of serum DPP IV in db/db mice after oral dose; details: Diabetic-control = 100.00; for activity at 0.0025 mg/kg / activity at 0.01 mg/kg / activity at 0.025 mg/kg: mouse, iv; for activity at 0.0025 mg/kg: read-out: In vivo inhibition of serum DPP IV, 0.0025 mg/kg; for activity at 0.01 mg/kg: read-out: In vivo inhibition of serum DPP IV, 0.01 mg/kg; for activity at 0.025 mg/kg: read-out: In vivo inhibition of serum DPP IV, 0.025 mg/kg
[4] = test system: male Sprague-Dawley rats; experiment: Example 10: clinical signs and mortality after single oral administration in male rats; details: for Clinical Observation: one line per animal, wrapped cell 'Redness of ears' continues 'and paws';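 for all read-outs here: test articles given by mouth, formulated in deionized Type I water as vehicle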
[5] = test system: Zucker rats; experiment: Toxicity (mortality) after oral dose in rats; type: in vivo
[6] = test system: Diabetic Mice; experiment: Toxicity (mortality) of Val-boroPro in diabetic mice; type: in vivo
[7] = pH 2, ten minutes, read-out: IC50 Values at Ten Minutes pH 2
[8] = pH 8, ten minutes, read-out: IC50 Values at Ten Minutes pH 8
[9] = pH 2, read-out: Tetrapeptide Prodrugs (IC50) pH 2
[10] = pH 8, read-out: Tetrapeptide Prodrugs (IC50) pH 8
[11] = 0.5 mg/kg ALA-PRO boronic dose equivalents
[12] = 2.5 mg/kg ALA-PRO boronic dose equivalents
[13] = 10.0 mg/kg ALA-PRO boronic dose equivalents

Sequence of serum DPP IV (P28843 37-760 limits assumed): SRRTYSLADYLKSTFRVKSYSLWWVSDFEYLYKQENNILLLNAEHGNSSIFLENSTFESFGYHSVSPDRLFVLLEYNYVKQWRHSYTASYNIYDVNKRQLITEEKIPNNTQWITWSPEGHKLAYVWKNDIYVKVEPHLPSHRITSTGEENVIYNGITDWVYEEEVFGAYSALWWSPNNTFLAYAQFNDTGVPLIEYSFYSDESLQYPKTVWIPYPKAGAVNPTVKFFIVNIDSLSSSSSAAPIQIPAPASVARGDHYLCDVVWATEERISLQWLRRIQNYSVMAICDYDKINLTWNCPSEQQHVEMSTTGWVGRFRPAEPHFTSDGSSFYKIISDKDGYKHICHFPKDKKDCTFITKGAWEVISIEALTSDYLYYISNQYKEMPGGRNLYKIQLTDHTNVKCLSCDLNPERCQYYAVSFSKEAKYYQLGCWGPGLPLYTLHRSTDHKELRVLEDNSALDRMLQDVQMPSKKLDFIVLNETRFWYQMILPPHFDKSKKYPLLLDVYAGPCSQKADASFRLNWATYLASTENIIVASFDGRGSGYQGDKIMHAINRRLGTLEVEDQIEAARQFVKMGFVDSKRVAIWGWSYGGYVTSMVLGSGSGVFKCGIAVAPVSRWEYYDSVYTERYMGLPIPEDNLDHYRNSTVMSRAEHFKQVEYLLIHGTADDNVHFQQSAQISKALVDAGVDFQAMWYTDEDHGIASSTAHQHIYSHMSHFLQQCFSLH
Sequence of DPP IV (P27487 whole entry, species assumed): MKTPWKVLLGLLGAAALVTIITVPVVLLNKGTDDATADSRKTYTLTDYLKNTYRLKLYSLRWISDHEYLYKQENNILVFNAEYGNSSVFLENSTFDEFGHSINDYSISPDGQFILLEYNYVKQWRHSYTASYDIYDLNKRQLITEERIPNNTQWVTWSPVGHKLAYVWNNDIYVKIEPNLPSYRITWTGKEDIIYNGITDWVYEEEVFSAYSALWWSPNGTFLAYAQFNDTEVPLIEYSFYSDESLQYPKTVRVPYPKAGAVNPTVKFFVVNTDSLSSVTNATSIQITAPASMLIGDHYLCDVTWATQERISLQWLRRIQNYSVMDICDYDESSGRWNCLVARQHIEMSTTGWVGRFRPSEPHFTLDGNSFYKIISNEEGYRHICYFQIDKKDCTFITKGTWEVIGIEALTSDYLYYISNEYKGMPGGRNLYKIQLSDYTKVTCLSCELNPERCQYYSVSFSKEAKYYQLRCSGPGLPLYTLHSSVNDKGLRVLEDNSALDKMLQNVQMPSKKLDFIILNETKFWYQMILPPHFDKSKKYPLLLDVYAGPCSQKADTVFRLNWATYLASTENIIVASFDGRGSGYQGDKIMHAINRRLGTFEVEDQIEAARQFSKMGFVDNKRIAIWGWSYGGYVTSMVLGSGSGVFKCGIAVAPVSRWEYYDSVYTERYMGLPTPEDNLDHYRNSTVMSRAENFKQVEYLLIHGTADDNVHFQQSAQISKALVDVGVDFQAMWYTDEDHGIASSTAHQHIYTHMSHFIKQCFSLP
T1 sequence (P14740 37-767 limits assumed): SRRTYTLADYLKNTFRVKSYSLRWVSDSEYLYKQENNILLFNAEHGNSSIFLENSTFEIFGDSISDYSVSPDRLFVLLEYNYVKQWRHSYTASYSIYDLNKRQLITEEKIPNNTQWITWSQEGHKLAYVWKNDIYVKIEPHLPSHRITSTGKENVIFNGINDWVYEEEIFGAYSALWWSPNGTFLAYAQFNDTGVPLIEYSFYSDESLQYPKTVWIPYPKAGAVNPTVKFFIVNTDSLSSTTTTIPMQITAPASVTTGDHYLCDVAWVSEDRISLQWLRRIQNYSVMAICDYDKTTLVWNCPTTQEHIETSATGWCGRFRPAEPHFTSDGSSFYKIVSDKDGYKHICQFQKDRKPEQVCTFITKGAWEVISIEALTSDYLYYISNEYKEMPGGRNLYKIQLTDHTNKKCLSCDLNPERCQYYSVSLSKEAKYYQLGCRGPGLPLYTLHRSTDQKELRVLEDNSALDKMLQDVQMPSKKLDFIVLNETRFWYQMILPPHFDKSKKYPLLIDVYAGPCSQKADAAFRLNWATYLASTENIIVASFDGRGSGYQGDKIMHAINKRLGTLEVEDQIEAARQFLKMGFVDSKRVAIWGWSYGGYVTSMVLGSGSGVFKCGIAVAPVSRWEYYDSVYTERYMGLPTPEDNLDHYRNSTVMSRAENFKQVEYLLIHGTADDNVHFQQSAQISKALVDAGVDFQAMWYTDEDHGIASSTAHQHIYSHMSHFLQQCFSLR

IC50 [1, 7]: 0.015 µM
IC50 [1, 8]: 0.016 µM
Compound: CCC(NC(=O)C1CCN1C(=O)C(N)C1CCCCC1)C(=O)N1CCCC1B(O)O (centres unmarked) [ChgAzeEtgboroPro]

IC50 [1, 7]: 0.017 µM
IC50 [1, 8]: 0.025 µM
Compound: CCC(NC(=O)C1CC(O)CN1C(=O)C(N)C1CCCCC1)C(=O)N1CCCC1B(O)O (centres unmarked) [ChgHypEtgboroPro]

IC50 [1, 7]: 1.5 µM
IC50 [1, 8]: 8 µM
Compound: CC(C)(C)[C@H](NC(=O)[C@@H]1CCCN1C(=O)[C@@H](N)C1CCCCC1)C(=O)N1CCC[C@H]1B(O)O [ChgProBugboroPro]

IC50 [1, 9]: 0.18 µM
IC50 [1, 7]: 0.18 µM
IC50 [1, 10]: 0.17 µM
IC50 [1, 8]: 0.17 µM
Compound: CC(NC(=O)C(NC(=O)C1CCCN1C(=O)C(N)C1CCCCC1)C1CCCCC1)B(O)O (centres unmarked) [ChgProChgboroAla]

IC50 [1, 7]: 0.014 µM
IC50 [1, 8]: 0.014 µM
Compound: NC(C(=O)N1CCCC1C(=O)NC(C(=O)N1CCCC1B(O)O)C1CCCCC1)C1CCCCC1 (centres unmarked) [ChgProChgboroPro]

IC50 [1, 7]: 0.012 µM
IC50 [1, 8]: 0.014 µM
Compound: CCC(NC(=O)C1CCCN1C(=O)C(N)C1CCCCC1)C(=O)N1CCCC1B(O)O (centres unmarked) [ChgProEtgboroPro]

IC50 [1, 7]: 6.8 µM
IC50 [1, 8]: 8.4 µM
Compound: CC(NC(=O)C(NC(=O)C1CCCN1C(=O)C(N)C1CCCCC1)C(C)(C)C)B(O)O (centres unmarked) [ChgProtBugboroAla]

IC50 [1, 7]: 0.013 µM
IC50 [1, 8]: 0.016 µM
Compound: CC[C@H](NC(=O)[C@@H]1CSCN1C(=O)[C@@H](N)C1CCCCC1)C(=O)N1CCC[C@H]1B(O)O [ChgThz4EtgboroPro]

IC50 [1, 9]: 9 µM
IC50 [1, 7]: 8.6 µM
IC50 [1, 8]: 20 µM
Compound: NCC(=O)N1CCCC1C(=O)N1CCCC1C(=O)N1CCCC1B(O)O (centres unmarked) [GlyProProboroPro]

IC50 [1, 9]: 0.017 µM
IC50 [1, 7]: 0.017 µM
IC50 [1, 10]: 0.046 µM
IC50 [1, 8]: 0.046 µM
Compound: CC(C)C(NC(=O)C1CCCN1C(=O)CN)C(=O)N1CCCC1B(O)O (centres unmarked) [GlyProValboroPro]

IC50 [1, 7]: 0.006 µM
IC50 [1, 8]: 0.008 µM
Compound: CC(NC(=O)C1CCCN1C(=O)C(N)Cc1ccccc1)C(=O)N1CCCC1B(O)O (centres unmarked) [PheProAlaboroPro, Phenylalanine-Proline-Alanine-Proline Boronic Acid]

IC50 [1, 9]: 10 µM
IC50 [1, 7]: 10 µM
Compound: O=C(C1CCCN1C(=O)C1CCCN1C(=O)C1CCCN1)N1CCCC1B(O)O (centres unmarked) [ProProProboroPro]

IC50 [1, 7]: 0.015 µM
IC50 [1, 8]: 0.017 µM
Compound: CC(NC(=O)C1CCCN1C(=O)C(N)Cc1ccc(O)cc1)C(=O)N1CCCC1B(O)O (centres unmarked) [TyrProAlaboroPro, Tyrosine-Proline-Alanine-Proline Boronic Acid]

IC50 [1, 7]: 0.014 µM
IC50 [1, 8]: 0.018 µM
Compound: CC(NC(=O)C1CCCN1C(=O)C(N)C(C)(C)C)C(=O)N1CCCC1B(O)O (centres unmarked) [tBugProAlaboroPro]

IC50 [1, 7]: 0.015 µM
IC50 [1, 8]: 0.017 µM
Compound: ChgDhpEtgboroPro

IC50 [1, 7]: 0.019 µM
IC50 [1, 8]: 0.014 µM
Compound: ChgPipEtgboroPro

The remaining lines, values behind:

Compound: CC(NC(=O)C(C)(C)N)C(=O)NC(C(=O)N1CCCC1B(O)O)C(C)C (centres unmarked) [AibAlaValboroPro]
IC50 [1, 7]: 2 µM

Compound: CC(N)C(=O)NC(C)C(=O)N1CCCC1C(=O)N1CCCC1B(O)O (centres unmarked) [AlaAlaProboroPro]
IC50 [1, 7]: 3 µM

Compound: CC(N)C(=O)NC(C)C(=O)NC(C(=O)N1CCCC1B(O)O)C(C)C (centres unmarked) [AlaAlaValboroPro]
IC50 [1, 7]: 2 µM
IC50 [1, 8]: 25 µM

Compound: CC(N)C(=O)N1CCCC1C(=O)N1CCCC1C(=O)N1CCCC1B(O)O (centres unmarked) [AlaProProboroPro]
IC50 [1, 7]: 8.3 µM

Compound: CC(N)C(=O)N1CCCC1C(=O)NC(C(=O)N1CCCC1B(O)O)C(C)C (centres unmarked) [AlaProValboroPro]
IC50 [1, 9]: 0.02 µM
IC50 [1, 7]: 0.02 µM
IC50 [1, 10]: 0.021 µM
IC50 [1, 8]: 0.021 µM

Compound: CCC(NC(=O)C(C)NC(=O)C(N)C1CCCCC1)C(=O)NC(C)B(O)O (centres unmarked) [ChgAlaEtgboroAla]
IC50 [1, 7]: 1.3 µM
IC50 [1, 8]: 2.5 µM

Compound: CCC(NC(=O)C(C)NC(=O)C(N)C1CCCCC1)C(=O)N1CCCC1B(O)O (centres unmarked) [ChgAlaEtgboroPro]
IC50 [1, 7]: 0.6 µM
IC50 [1, 8]: 0.802 µM

Compound: CC(NC(=O)C(N)C1CCCCC1)C(=O)N1CCCC1C(=O)N1CCCC1B(O)O (centres unmarked) [ChgAlaProboroPro]
IC50 [1, 7]: 2 µM
IC50 [1, 8]: 30 µM

Compound: CC(NC(=O)C(N)C1CCCCC1)C(=O)NC(C(=O)N1CCCC1B(O)O)C(C)C (centres unmarked) [ChgAlaValboroPro]
IC50 [1, 9]: 0.19 µM
IC50 [1, 7]: 0.19 µM
IC50 [1, 10]: 0.36 µM
IC50 [1, 8]: 0.36 µM

Compound: CC(NC(=O)C1CCCN1C(=O)C(N)C1CCCCC1)C(=O)N1CCCC1B(O)O (centres unmarked) [ChgProAlaboroPro, Cyclohexylglycine-Proline-Ala-boroProline]
IC50 [1, 9]: 0.019 µM
IC50 [1, 7]: 0.017 µM
IC50 [1, 10]: 0.015 µM
IC50 [1, 8]: 0.017 µM
Inhibition of serum DPP IV activity compared with Val-boroPro [2]: much less orally active
activity at 0.0025 mg/kg ([3]; 1 hr Post Rx-Glucose): 110%
activity at 0.0025 mg/kg ([3]; 4 hrs Post Rx-Glucose): 99.5%
activity at 0.01 mg/kg ([3]; 1 hr Post Rx-Glucose): 100%
activity at 0.01 mg/kg ([3]; 4 hrs Post Rx-Glucose): 77.5%
activity at 0.025 mg/kg ([3]; 1 hr Post Rx-Glucose): 111%
activity at 0.025 mg/kg ([3]; 4 hrs Post Rx-Glucose): 58.9%
Clinical Observation [4, 11]: None
Clinical Observation [4, 12]: None
Approximate Time of Sacrifice or Time Animal was Found Dead (hr post-dose) [4, 13]: ~5 h (sacrificed)
Clinical Observation ([4]; 10.0 mg/kg ALA-PRO boronic dose equivalents, listed as L-2-Chg-PRO-ALA-PRO boronic acid): Redness of ears and Decreased activity and labored breathing and None (2×)

Compound: CNC(Cc1ccccc1)C(=O)N1CCCC1C(=O)NC(C)C(=O)N1CCCC1B(O)O (centres unmarked) [N—Me-PheProAlaboroPro, N-Me-Phe-PRO-ALA-PRO Boronic Acid]
IC50 [1, 7]: 2 µM
IC50 [1, 8]: 2.7 µM
Clinical Observation [4, 11]: None
Approximate Onset of Observation (Time post-dose) [4, 12]: ~2 h
Clinical Observation [4, 12]: Redness of ears and None (2×)
Approximate Onset of Observation (Time post-dose) [4, 13]: ~4 h
Clinical Observation [4, 13]: None (2×) and Redness of ears

Compound: O=C(C1CCCN1)N1CCCC1B(O)O (centres unmarked) [Pro-boroPro, reference compound]
pH dependence of DPP IV inhibition ([1]; pre-incubated at low pH vs high pH (FIG. 3, FIG. 64, Table 1)): more effective as inhibitors of DPP IV when pre-incubated at low pH than at high pH

Compound: NC(Cc1ccc(O)cc1)C(=O)N1CCCC1C(=O)NC(Cc1ccccc1)C(=O)N1CCCC1B(O)O (centres unmarked) [TyrProPheboroPro]
IC50 ([1]; IC50 Values at Ten Minutes pH 2, pH 2, ten minutes): 0.05 µM
IC50 ([1]; IC50 Values at Ten Minutes pH 8, pH 8, ten minutes): 0.06 µM

Compound: CC(C)[C@H](N)C(=O)N1CCC[C@H]1B(O)O [Val-boroPro]
MORTALITY ([5]; 0.035 mg/kg Oral, Zucker Lean, 4 animals dosed, project 002969): 1
MORTALITY ([5]; 0.035 mg/kg Oral, Zucker Obese, 4 animals dosed, project 002969): 4
MORTALITY ([5]; 0.35 mg/kg Oral, Zucker Lean, 4 animals dosed, project 002969): 4
MORTALITY ([5]; 0.35 mg/kg Oral, Zucker Obese, 4 animals dosed, project 002969): 4
MORTALITY ([5]; 1.75 mg/kg Oral, Zucker Lean, 4 animals dosed, project 002969): 2
MORTALITY ([5]; 1.75 mg/kg Oral, Zucker Obese, 4 animals dosed, project 002969): 2
MORTALITY ([5]; 5 mg/kg Oral, Zucker Lean, 3 animals dosed, project 002898): 3
MORTALITY ([5]; 5 mg/kg Oral, Zucker Obese, 4 animals dosed, project 002898): 4
Mortality (rats killed) ([5]; Zucker rats, dose of 0.035 mg/kg): four out of four
Toxicity to rats ([5]; rats): quite toxic to rats
MORTALITY ([6]; 0.035 mg/kg, Diabetic Mice (starved), 8 animals dosed, project 011050): 0
MORTALITY ([6]; 0.035 mg/kg, Diabetic Mice, 7 animals dosed, project 010757): 0
MORTALITY ([6]; 0.035 mg/kg, Diabetic Mice, 8 animals dosed, project 011050 group 3): 0
MORTALITY ([6]; 0.35 mg/kg, Diabetic Mice, 7 animals dosed, project 010757): 0
Toxic effect in mice ([6]; 3.5 mg/kg): no noticeable toxic effect
MORTALITY ([6]; 3.5 mg/kg, Diabetic Mice, 7 animals dosed, project 010757): 0
Toxicity to mice ([6]; mice): apparently not at all
In vivo inhibition of serum DPP IV ([3]; 0.0025 mg/kg, 1 hr Post Rx-Glucose): 94.52
In vivo inhibition of serum DPP IV ([3]; 0.0025 mg/kg, 4 hrs Post Rx-Glucose): 93.30
In vivo inhibition of serum DPP IV ([3]; 0.01 mg/kg, 1 hr Post Rx-Glucose): 59.36
In vivo inhibition of serum DPP IV ([3]; 0.01 mg/kg, 4 hrs Post Rx-Glucose): 58.85
In vivo inhibition of serum DPP IV ([3]; 0.025 mg/kg, 1 hr Post Rx-Glucose): 47.49
In vivo inhibition of serum DPP IV ([3]; 0.025 mg/kg, 4 hrs Post Rx-Glucose): 39.23

Reference: US9629921B2, “Smart pro-drugs of serine protease inhibitors” (Trustees of Tufts College, priority 2002, dated 2017)
